`CCCCCSc1nc(NC(CC)CO)c2sc(N)nc2n1` (racemic) [Example 6, (±)-2-[[2-Amino-5-(pentylthio)thiazolo[4,5-d]pyrimidin-7-yl]amino]-1-butanol]: the melting point lay within 151 to 154 °C.

Compound `CCCCCSc1nc2nc(Br)sc2c(=O)[nH]1` [Example 11, 2-Bromo-5-(pentylthio)thiazolo[4,5-d]pyrimidin-7(4H)-one] displayed a melting point of 189 to 191 °C.

In turn, `CCCCCSc1nc(NCCO)c2sc(N)nc2n1` [Example 7, 2-[[2-Amino-5-(pentylthio)thiazolo[4,5-d]pyrimidin-7-yl]amino]ethanol] had a melting point of 192 to 195 °C.

`CC(C)(CO)Nc1nc(SCc2cccc(Oc3ccccc3)c2)nc2nc(N)sc12` [Example 115, 2-[[2-Amino-5-[[(3-phenoxyphenyl)methyl]thio]thiazolo[4,5-d]pyrimidin-7-yl]amino]-2-methyl-1-propanol] gave a melting point of 126 to 130 °C.

Turning to `O=c1[nH]c(SCc2cccc(Oc3ccccc3)c2)nc2ncsc12` [Example 4, 5-[[(3-Phenoxyphenyl)methyl]thio]thiazolo[4,5-d]pyrimidin-7(4H)-one], the melting point fell in the range of 197 to 198 °C.

`Nc1nc2nc(SCc3cccc(Oc4ccccc4)c3)nc(NC(CO)CO)c2s1` [Example 114, 2-[[2-Amino-5-[[(3-phenoxyphenyl)methyl]thio]thiazolo[4,5-d]pyrimidin-7-yl]amino]-1,3-propanediol] yielded a melting point of 220 to 222 °C.

`CC[C@@H](CO)Nc1nc(SCc2cccc(Oc3ccccc3)c2)nc2nc(N)sc12` [Example 112, (2S)-2-[[2-Amino-5-[[(3-phenoxyphenyl)methyl]thio]thiazolo[4,5-d]pyrimidin-7-yl]amino]-1-butanol] had a melting point of 111 to 114 °C.

Compound `CC[C@H](CO)Nc1nc(SCc2cccc(Oc3ccccc3)c2)nc2nc(N)sc12` [Example 111, (2R)-2-[[2-Amino-5-[[(3-phenoxyphenyl)methyl]thio]thiazolo[4,5-d]pyrimidin-7-yl]amino]-1-butanol] returned a melting point of 108 to 111 °C.

In turn, `Nc1nc2nc(SCc3cccc(Oc4ccccc4)c3)[nH]c(=O)c2s1` [Example 5, 2-Amino-5-[[(3-phenoxyphenyl)methyl]thio]thiazolo[4,5-d]pyrimidin-7(4H)-one] gave a melting point of 266 to 269 °C.

Consider `CCCCCSc1nc2ncsc2c(=O)[nH]1` [Example 8, 5-(Pentylthio)thiazolo[4,5-d]pyrimidin-7(4H)-one], for which the melting point lay within 208 to 209 °C.

What is called melting point is the temperature of the solid-liquid transition.
